Source: patent EP0671410A1, “Antiviral compounds” (priority 1989, dated 1991)

Assays:
[1] = test system: Influenza A and B strains; assay: microbe, parasite or virus in culture; format: cell-based; settings: in Gallus gallus, read-out: Anti-influenza Activity CE cells IC50,µM
[2] = test system: Influenza A and B strains; design: species or system Mice; settings: in vivo
[3] = test system: Respiratory Syncytial Virus (RSV); assay: microbe, parasite or virus in culture; format: cell-based; settings: human respiratory syncytial virus, BSC-1; BS-C-1 cells (African Green Monkey kidney cells); plaque/foci reduction; read-out: Anti-respiratory syncytial virus BS-C-1 cells IC₅₀

Compound | IC50 [1] [µM] | Anti-influenza Activity Mouse log10 reduction in virus titre. (Average of 5 Mice) [2] | IC50 [3] [µM]
Nc1nc(N)c2ncn([C@@H]3O[C@H](CO)[C@@H](O)[C@H]3F)c2n1 [Example 6, 2,6-Diamino-9-(2-deoxy-2-fluoro-β-D-ribofuranosyl)-9H-purine] | 0.6 | +(2.1) log10 | 
Nc1nc2c(ncn2[C@@H]2O[C@H](CO)[C@@H](O)[C@H]2F)c(=O)[nH]1 [Example 7, 9-(2-Deoxy-2-fluoro-β-D-ribofuranosyl)guanine] | 0.8 to 2 | +(2.4) log10 | 26.2
Nc1ncnc2c1ncn2[C@@H]1O[C@H](CO)[C@@H](O)[C@H]1F [Example 8, 9-(2-Deoxy-2-fluoro-β-D-ribofuranosyl)adenine] | 4 | +(2.3) log10 | 
Nc1ncc2ncn([C@@H]3O[C@H](CO)[C@@H](O)[C@H]3F)c2n1 [Example 9, 2-Amino-9-(2-deoxy-2-fluoro-β-D-ribofuranosyl)-9H-purine] |  | +(1.6) log10 | 
COc1nc(N)nc2c1ncn2[C@@H]1O[C@H](CO)[C@@H](O)[C@H]1F [Example 12, 2-Amino-9-(2-deoxy-2-fluoro-β-D-ribofuranosyl)-6-methoxy-9H-purine] | 0.4 | +(1.9) log10 | 6.3
